Assay results reported in PubChem BioAssay AID296 (DTP/NCI, 2004).
“And” between values parts separate entries of the source, which are not always exact repeats. Equal entries are not always repeated. Results filed as inconclusive are left out.

System: MX-1 breast xenograft, nude mice, tumor weight T/C
Test: NCI In Vivo Anticancer Drug Screen. Data for tumor model Human Mammary Carcinoma MX-1 Xenograft (intrarenal inoculation) in NU/NU Swiss (nude) mice
Conditions: endpoint: mean tumor weight change, higher = larger tumour
Summary of the method: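 Compound dosed to mice with transplantable tumor; vehicle group as control. Endpoint survival or tumour size, reported as T/C.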

[1] = dose: 150.0 mg/kg/injection, schedule: Q04DX003 (sc), vehicle: saline with Tween-80
[2] = dose: 300.0 mg/kg/injection, schedule: Q04DX003 (sc), vehicle: saline with Tween-80
[3] = dose: 1200.0 mg/kg/injection, schedule: Q04DX003 (sc), vehicle: saline with Tween-80

With ClC1=C(Cl)C(Cl)=C(Cl)C1=Cc1ccccc1 the T/C (dose: 100.0 mg/kg/injection, schedule: Q04DX003 (sc), vehicle: saline with Tween-80) was 98 % of control, the T/C (dose: 200.0 mg/kg/injection, schedule: Q04DX003 (sc), vehicle: saline with Tween-80) was 119 % of control and the T/C (dose: 400.0 mg/kg/injection, schedule: Q04DX003 (sc), vehicle: saline with Tween-80) was 98 % of control. For the same molecule, the T/C (dose: 800.0 mg/kg/injection, schedule: Q04DX003 (sc), vehicle: saline with Tween-80) was 110 % of control.

For O=[N+]([O-])O.O=[N+]([O-])O.[NH-]C1CCCCC1[NH-].[Pt+2] (centres undefined), the T/C (dose: 1.0 mg/kg/injection, schedule: Q01DX010 (sc), vehicle: dextrose) was 62 % of control and the T/C (dose: 2.0 mg/kg/injection, schedule: Q01DX010 (sc), vehicle: dextrose) was 27 % of control.

CC(=O)[O][Pb]([O]C(C)=O)([c]1ccccc1)[c]1ccccc1 was tested, and the T/C (dose: 25.0 mg/kg/injection, schedule: Q01DX010 (sc), vehicle: Klucel (hydroxypropylcellulose) (HPC)) was 105 % of control, the T/C (dose: 50.0 mg/kg/injection, schedule: Q01DX010 (sc), vehicle: Klucel (hydroxypropylcellulose) (HPC)) was 167 % of control and the T/C (dose: 100.0 mg/kg/injection, schedule: Q01DX010 (sc), vehicle: Klucel (hydroxypropylcellulose) (HPC)) was 122 % of control. For the same molecule, the T/C (dose: 800.0 mg/kg/injection, schedule: Q01DX010 (sc), vehicle: Klucel (hydroxypropylcellulose) (HPC)) was 51 % of control.

For C=C(C)[C@]12CC(C)C34OC(/C=C\C=C\CCCCCCCCC)(O[C@@H]1[C@@H]3[C@@H]1O[C@]1(CO)[C@@H](O)[C@]1(O)C(=O)C(C)=C[C@@H]41)O2 (some centres undefined), the T/C (dose: 6.0 mg/kg/injection, schedule: Q04DX003 (sc), vehicle: distilled water + alcohol) was 102 % of control and the T/C (dose: 12.0 mg/kg/injection, schedule: Q04DX003 (sc), vehicle: distilled water + alcohol) was 95 % of control.

COC(=O)C[C@](O)(CCC(C)(C)O)C(=O)O[C@@H]1C(OC)=C[C@]23CCCN2CCc2cc4c(cc2[C@H]13)OCO4 was tested, and the T/C (dose: 0.15 mg/kg/injection, schedule: Q04DX003 (sc), vehicle: saline) was 123 % of control, the T/C (dose: 0.31 mg/kg/injection, schedule: Q04DX003 (sc), vehicle: saline) was 93 % of control and the T/C (dose: 0.63 mg/kg/injection, schedule: Q04DX003 (sc), vehicle: saline) was 119 % of control. For the same molecule, the T/C (dose: 1.25 mg/kg/injection, schedule: Q04DX003 (sc), vehicle: saline) was 97 % of control.

With C1=CCOCOC1 the T/C [1] was 71 % of control and the T/C [2] was 70 % of control.

CC[C@@]1(O)C[C@H](OC2CC(N(C)C)C(OC3CC(O)C(OC4CCC(=O)C(C)O4)C(C)O3)C(C)O2)c2c(cc3c(c2O)C(=O)c2c(O)ccc(O)c2C3=O)[C@H]1C(=O)OC (some centres undefined) was tested, and the T/C (dose: 3.0 mg/kg/injection, schedule: Q04DX003 (sc), vehicle: water) was 88 % of control and the T/C (dose: 6.0 mg/kg/injection, schedule: Q04DX003 (sc), vehicle: water) was 43 % of control.

For O=CC(CO)CC(C=O)n1cnc2c(=O)[nH]cnc21 (centres undefined), the T/C (dose: 150.0 mg/kg/injection, schedule: Q04DX003 (ip), vehicle: saline) was 62 % of control, the T/C (dose: 300.0 mg/kg/injection, schedule: Q04DX003 (ip), vehicle: saline) was 57 % of control and the T/C (dose: 600.0 mg/kg/injection, schedule: Q04DX003 (ip), vehicle: saline) was 30 % of control.

For CC(=Nc1ccccc1)C1=C(O)C(Cc2ccccc2)NC1=O (centres undefined), the T/C [1] was 92 % of control, the T/C [2] was 63 % of control and the T/C (dose: 600.0 mg/kg/injection, schedule: Q04DX003 (sc), vehicle: saline with Tween-80) was 48 % of control. The T/C [3] was 44 % of control.

For O=C(O)CC(NC(=O)CP(=O)(O)O)C(=O)O.[NH-]C1CCCCC1[NH-].[Pt+2] (centres undefined), the T/C (dose: 12.5 mg/kg/injection, schedule: Q04DX003 (sc), vehicle: dextrose) was 175 % of control, the T/C (dose: 25.0 mg/kg/injection, schedule: Q04DX003 (sc), vehicle: dextrose) was 43 % of control and 62 % of control and the T/C (dose: 100.0 mg/kg/injection, schedule: Q04DX003 (sc), vehicle: dextrose) was 12 % of control.

With CC(=O)OC1C(O)C(C)OC(OC2C(OC(=O)C3CCC4C(C3)OC3(CC(OC(=O)/C=C/c5ccccc5)C(C)CO3)C43CO3)OC(C)C(O)C2OC(C)=O)C1O (centres undefined) the T/C (dose: 15.0 mg/kg/injection, schedule: Q04DX003 (sc), vehicle: distilled water + Tween-80) was 124 % of control, the T/C (dose: 30.0 mg/kg/injection, schedule: Q04DX003 (sc), vehicle: distilled water + Tween-80) was 117 % of control and the T/C (dose: 60.0 mg/kg/injection, schedule: Q04DX003 (sc), vehicle: distilled water + Tween-80) was 73 % of control. The T/C (dose: 120.0 mg/kg/injection, schedule: Q04DX003 (sc), vehicle: distilled water + Tween-80) was 61 % of control.

O=C(CC(=O)C(F)(F)F)c1csc2ccccc12 was tested, and the T/C (dose: 300.0 mg/kg/injection, schedule: Q04DX003 (sc), vehicle: Klucel (hydroxypropylcellulose) (HPC)) was 87 % of control, the T/C (dose: 600.0 mg/kg/injection, schedule: Q04DX003 (sc), vehicle: Klucel (hydroxypropylcellulose) (HPC)) was 91 % of control and the T/C (dose: 1200.0 mg/kg/injection, schedule: Q04DX003 (sc), vehicle: Klucel (hydroxypropylcellulose) (HPC)) was 111 % of control. The T/C (dose: 2400.0 mg/kg/injection, schedule: Q04DX003 (sc), vehicle: Klucel (hydroxypropylcellulose) (HPC)) was 99 % of control.

In the case of O=C(NP(=O)(N1CC1)N1CC1)c1cc(I)ccc1I, the T/C (dose: 37.5 mg/kg/injection, schedule: Q04DX003 (sc), vehicle: saline) is reported as 23 % of control, the T/C (dose: 75.0 mg/kg/injection, schedule: Q04DX003 (sc), vehicle: suspension in saline) is reported as -60 % of control and the T/C (dose: 150.0 mg/kg/injection, schedule: Q04DX003 (sc), vehicle: saline) is reported as -9 % of control. The T/C (dose: 150.0 mg/kg/injection, schedule: Q04DX003 (sc), vehicle: suspension in saline) was 11 % of control, the T/C (dose: 300.0 mg/kg/injection, schedule: Q04DX003 (sc), vehicle: saline) was -100 % of control and the T/C (dose: 300.0 mg/kg/injection, schedule: Q04DX003 (sc), vehicle: suspension in saline) was -27 % of control. The T/C (dose: 600.0 mg/kg/injection, schedule: Q04DX003 (sc), vehicle: suspension in saline) was 2 % of control.

ClCc1ccc2ccccc2n1 was tested, and the T/C [1] was 98 % of control, the T/C [2] was 98 % of control and the T/C [3] was 116 % of control.

In the case of CCCCCCCCCCCCCCCC(=O)Nc1ccn(C2OC(CO)C(O)C2O)c(=O)n1 (centres undefined), the T/C (dose: 1200.0 mg/kg/injection, schedule: Q04DX003 (sc), vehicle: water) is reported as -65 % of control and -50 % of control.

In the case of CCCNC1=C(C)C(=O)C2=C(C1=O)[C@H](COC(N)=O)[C@]1(OC)[C@@H]3N[C@@H]3CN21, the T/C (dose: 6.0 mg/kg/injection, schedule: Q04DX003 (sc), vehicle: suspension in saline) is reported as 1 % of control and the T/C (dose: 12.0 mg/kg/injection, schedule: Q04DX003 (sc), vehicle: suspension in saline) is reported as -83 % of control.

With CC1CCC(NC(=O)N(CCCl)N=O)CC1 (centres undefined) the T/C (dose: 6.25 mg/kg/injection, schedule: Q01DX010 (sc), vehicle: Klucel (hydroxypropylcellulose) (HPC)) was 74 % of control and the T/C (dose: 12.5 mg/kg/injection, schedule: Q01DX010 (sc), vehicle: Klucel (hydroxypropylcellulose) (HPC)) was 78 % of control.

CO[C@@]12[C@@H]3N[C@@H]3CN1C1=C(C(=O)C(NCCc3ccccn3)=C(C)C1=O)[C@@H]2COC(N)=O was tested, and the T/C (dose: 6.25 mg/kg/injection, schedule: Q04DX003 (ip), vehicle: saline with Tween-80) was -84 % of control, the T/C (dose: 12.5 mg/kg/injection, schedule: Q04DX003 (ip), vehicle: saline with Tween-80) was -21 % of control and the T/C (dose: 25.0 mg/kg/injection, schedule: Q04DX003 (ip), vehicle: saline with Tween-80) was -95 % of control.

In the case of O=C[C@@H](CO)O[C@H](C=O)c1c[nH]c(=O)[nH]c1=O, the T/C (dose: 18.75 mg/kg/injection, schedule: Q04DX003 (ip), vehicle: saline) is reported as 91 % of control, the T/C (dose: 37.5 mg/kg/injection, schedule: Q04DX003 (ip), vehicle: saline) is reported as 59 % of control and the T/C (dose: 75.0 mg/kg/injection, schedule: Q04DX003 (ip), vehicle: saline) is reported as 35 % of control.
